Data published in ChEMBL document CHEMBL4602695, “Discovery and SARs of 5-Chloro-N4-phenyl-N2-(pyridin-2-yl)pyrimidine-2,4-diamine Derivatives as Oral Available and Dual CDK 6 and 9 Inhibitors with Potent Antitumor Activity” (J Med Chem, 2020).

Experiments:
CDK9/Cyclin K = CDK9/Cyclin K (Homo sapiens, UniProt P50750); assay: biochemical
CDK2/Cyclin A2 = CDK2/Cyclin A2 (Homo sapiens, UniProt P24941); set-up: species or system Sf9
CDK6/cyclin D3 = CDK6/cyclin D3 (Homo sapiens, UniProt Q00534); set-up: species or system Sf9
Sequence of CDK6/cyclin D3 (P30281 whole entry): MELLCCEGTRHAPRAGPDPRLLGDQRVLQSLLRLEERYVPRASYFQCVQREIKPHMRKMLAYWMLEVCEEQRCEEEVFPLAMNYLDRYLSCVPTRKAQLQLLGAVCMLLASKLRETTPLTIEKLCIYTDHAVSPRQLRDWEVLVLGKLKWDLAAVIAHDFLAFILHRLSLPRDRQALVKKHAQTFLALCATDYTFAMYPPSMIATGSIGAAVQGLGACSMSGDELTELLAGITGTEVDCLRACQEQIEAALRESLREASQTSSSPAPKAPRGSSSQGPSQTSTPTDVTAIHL
Sequence of CDK6/cyclin D3 (Q00534 whole entry): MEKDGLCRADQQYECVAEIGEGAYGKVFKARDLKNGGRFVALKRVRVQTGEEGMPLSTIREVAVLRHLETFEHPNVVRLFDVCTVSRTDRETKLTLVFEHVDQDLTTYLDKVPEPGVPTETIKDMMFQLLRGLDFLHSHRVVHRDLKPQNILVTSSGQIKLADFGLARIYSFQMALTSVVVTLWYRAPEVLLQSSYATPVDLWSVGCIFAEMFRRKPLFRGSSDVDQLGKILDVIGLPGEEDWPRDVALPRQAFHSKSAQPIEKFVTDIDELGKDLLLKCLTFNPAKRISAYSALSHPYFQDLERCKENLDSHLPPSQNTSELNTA

MCF7 = assay: Antiproliferative activity against human MCF7 cells assessed as inhibition of cell proliferation measured after 48 hrs by CCK8 assay; format: functional, cell-based; conditions: MCF7, 48 h
MDA-MB-231 = assay: Antiproliferative activity against human MDA-MB-231 cells assessed as inhibition of cell proliferation measured after 48 hrs by CCK8 assay; format: functional, cell-based; conditions: MDA-MB-231, 48 h
[1] = Cytotoxicity against human L02 cells assessed as inhibition of cell proliferation measured after 48 hrs by CCK8 assay; format: cell-based
Jurkat = assay: Antiproliferative activity against human Jurkat cells assessed as inhibition of cell proliferation measured after 48 hrs by CCK8 assay; format: functional, cell-based

Sequence of CDK9/Cyclin K (P50750 whole entry): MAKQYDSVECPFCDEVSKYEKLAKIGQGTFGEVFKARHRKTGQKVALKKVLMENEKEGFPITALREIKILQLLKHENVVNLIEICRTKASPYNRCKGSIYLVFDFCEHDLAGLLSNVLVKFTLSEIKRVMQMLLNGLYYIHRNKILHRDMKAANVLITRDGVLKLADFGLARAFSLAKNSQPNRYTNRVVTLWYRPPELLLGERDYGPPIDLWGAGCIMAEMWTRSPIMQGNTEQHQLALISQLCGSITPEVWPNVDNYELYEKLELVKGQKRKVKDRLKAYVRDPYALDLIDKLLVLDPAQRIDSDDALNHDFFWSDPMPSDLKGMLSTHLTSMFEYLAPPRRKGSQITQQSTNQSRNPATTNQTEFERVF
Sequence of CDK9/Cyclin K (O75909 whole entry, further chain): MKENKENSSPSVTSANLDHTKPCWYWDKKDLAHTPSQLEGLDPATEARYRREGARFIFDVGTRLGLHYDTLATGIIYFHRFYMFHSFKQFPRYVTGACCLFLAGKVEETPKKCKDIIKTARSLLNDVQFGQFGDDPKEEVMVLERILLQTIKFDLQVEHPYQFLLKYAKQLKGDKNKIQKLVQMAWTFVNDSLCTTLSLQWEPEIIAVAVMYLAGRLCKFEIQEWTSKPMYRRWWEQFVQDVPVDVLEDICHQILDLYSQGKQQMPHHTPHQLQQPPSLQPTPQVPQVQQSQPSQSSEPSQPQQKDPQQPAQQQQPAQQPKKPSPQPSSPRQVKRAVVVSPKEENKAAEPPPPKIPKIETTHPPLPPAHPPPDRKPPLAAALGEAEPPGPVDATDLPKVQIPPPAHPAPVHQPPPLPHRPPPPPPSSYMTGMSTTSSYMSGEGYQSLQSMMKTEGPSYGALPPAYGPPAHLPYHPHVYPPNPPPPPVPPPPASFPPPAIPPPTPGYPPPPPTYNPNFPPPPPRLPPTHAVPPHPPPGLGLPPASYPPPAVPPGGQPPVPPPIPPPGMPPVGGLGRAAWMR

| SMILES | IC50 (CDK9/Cyclin K) | IC50 (CDK2/Cyclin A2) | IC50 (CDK6/cyclin D3) | GI50 (MCF7) | GI50 (MDA-MB-231) | GI50 at 48 h [1] | GI50 (Jurkat) |
| --- | --- | --- | --- | --- | --- | --- | --- |
| COc1ccc(CNc2nc(Nc3ccc(N4CCN(C)CC4)cn3)ncc2Cl)cc1 | > 10 µM | > 10 µM | 0.64 µM | 17.3 µM | 14.9 µM | 12.9 µM | 12.9 µM |
| COc1ccccc1CNc1nc(Nc2ccc(N3CCN(C)CC3)cn2)ncc1Cl | > 10 µM | > 10 µM | > 10 µM | > 100 µM | 29.3 µM | 25.5 µM | 10.8 µM |
| Cc1ccccc1Nc1nc(Nc2ccc(N3CCOCC3)cc2)ncc1Cl | 1.12 µM | 2.68 µM | 1.69 µM | > 100 µM | 11.3 µM | 5.37 µM | 8.36 µM |
| COc1cccc(CNc2nc(Nc3ccc(N4CCN(C)CC4)cn3)ncc2Cl)c1 | 3.29 µM | > 10 µM | 1.6 µM | 19.5 µM | 20.3 µM | 16.2 µM | 73.4 µM |
| CN1CCN(c2ccc(Nc3ncc(Cl)c(NCCc4ccccc4F)n3)nc2)CC1 | > 10 µM | > 10 µM | 3.71 µM | 8.73 µM | > 100 µM | 9.67 µM | 14.3 µM |
| CN1CCN(c2ccc(Nc3ncc(Cl)c(NCCc4ccccc4)n3)nc2)CC1 | > 10 µM | > 10 µM | > 10 µM | 11.8 µM | > 100 µM | 14.9 µM | > 100 µM |
| Cc1ccccc1Nc1nc(Nc2ccc(N3CCCCC3)cn2)ncc1Cl | > 10 µM | 4.84 µM | > 10 µM | 21.4 µM | > 100 µM | 42.4 µM | > 100 µM |
| COc1cc(Nc2ncc(Cl)c(Nc3ccccc3C)n2)ccn1 | 0.908 µM | 0.074 µM | > 10 µM | > 100 µM | 42.6 µM | 18.4 µM | 9.38 µM |
| COc1ccc(Nc2nc(Nc3ccc(N4CCN(C)CC4)cn3)ncc2Cl)cc1 | 1.38 µM | 6.11 µM | 0.606 µM | 8.45 µM | 8.02 µM | 3.15 µM | 11.2 µM |
| CCN1CCN(c2ccc(Nc3ncc(Cl)c(Nc4ccccc4C)n3)cc2)CC1 | 0.751 µM | 0.718 µM | 0.114 µM | 3.16 µM | 3.04 µM | 0.97 µM | 2.06 µM |
| Cc1ccccc1Nc1nc(NCCc2ccccn2)ncc1Cl | > 10 µM | > 10 µM | > 10 µM | > 100 µM | > 100 µM | > 100 µM | > 100 µM |
| Cc1ccc(CNc2nc(Nc3ccc(N4CCN(C)CC4)cn3)ncc2Cl)cc1 | > 10 µM | > 10 µM | 1.04 µM | 38.1 µM | 18.6 µM | > 100 µM | 12.7 µM |
| CN1CCN(c2ccc(Nc3ncc(Cl)c(Nc4ccc(C(C)(C)C)cc4)n3)nc2)CC1 | 6.82 µM | > 10 µM | 0.735 µM | 12.6 µM | 16.2 µM | 6.07 µM | – |
| Cc1cccc(Nc2nc(Nc3ccc(N4CCN(C)CC4)cn3)ncc2Cl)c1 | 0.431 µM | > 10 µM | 0.08 µM | 7.16 µM | 5.27 µM | 6.08 µM | 15.3 µM |
| Cc1ccccc1Nc1nc(NC2CCCCC2)ncc1Cl | > 10 µM | > 10 µM | > 10 µM | > 100 µM | > 100 µM | > 100 µM | > 100 µM |
| CCN1CCN(c2ccc(Nc3ncc(Cl)c(Nc4ccccc4C)n3)nc2)CC1 | > 10 µM | 9.18 µM | > 10 µM | > 100 µM | > 100 µM | > 100 µM | > 100 µM |
| Cc1ccccc1Nc1nc(Nc2ccncc2)ncc1Cl | > 10 µM | 6.23 µM | > 10 µM | 98.5 µM | 68.1 µM | > 100 µM | > 100 µM |
| Cc1ccccc1Nc1nc(NC2CC2)ncc1Cl | > 10 µM | > 10 µM | > 10 µM | > 100 µM | > 100 µM | > 100 µM | > 100 µM |
| Cc1ccccc1Nc1nc(NCc2ccco2)ncc1Cl | > 10 µM | > 10 µM | > 10 µM | > 100 µM | > 100 µM | > 100 µM | > 100 µM |
| COc1cccc(Nc2nc(Nc3ccc(N4CCN(C)CC4)cn3)ncc2Cl)c1 | 6.2 µM | 0.701 µM | 0.103 µM | 7.54 µM | 8.51 µM | 3.47 µM | 15.8 µM |

| SMILES | IC50 (CDK9/Cyclin K) | IC50 (CDK2/Cyclin A2) | IC50 (CDK6/cyclin D3) | GI50 (MCF7) | GI50 (MDA-MB-231) | GI50 at 48 h [1] | GI50 (Jurkat) |
| --- | --- | --- | --- | --- | --- | --- | --- |
| CC(C)c1ccccc1Nc1nc(Nc2ccc(N3CCN(C)CC3)cn2)ncc1Cl | 2.65 µM | > 10 µM | 0.033 µM | 4.36 µM | 4.09 µM | – | 5.14 µM |
| CC(C)c1ccc(Nc2nc(Nc3ccc(N4CCN(C)CC4)cn3)ncc2Cl)cc1 | 9.17 µM | > 10 µM | 0.126 µM | 1.88 µM | 7.02 µM | 13.7 µM | 7.53 µM |
| Cc1ccccc1Nc1nc(Nc2cccnc2)ncc1Cl | 3.43 µM | 0.03 µM | 6.65 µM | 56.5 µM | 41.2 µM | 22.9 µM | 38.6 µM |
| Cc1ccccc1Nc1nc(Nc2ccccn2)ncc1Cl | 8.11 to 8.12 µM | 0.643 µM | 2.76 µM | 31.4 µM | 11.2 µM | 6.15 µM | 20.1 µM |
| Cc1ccccc1Nc1nc(NCc2ccccc2)ncc1Cl | > 10 µM | > 10 µM | > 10 µM | > 100 µM | > 100 µM | > 100 µM | > 100 µM |
| CN1CCN(c2ccc(Nc3ncc(Cl)c(NCc4ccc(C(F)(F)F)cc4)n3)nc2)CC1 | > 10 µM | > 10 µM | 8.93 µM | 28.4 µM | 19.1 µM | 26.2 µM | 7.96 µM |
| Cc1ccc(Nc2nc(Nc3ccc(N4CCN(C)CC4)cn3)ncc2Cl)cc1 | 1.45 µM | > 10 µM | 0.088 µM | 11.4 µM | 4.03 µM | 13.9 µM | 30.9 µM |
| Cc1cc(C)c(Nc2nc(Nc3ccc(N4CCN(C)CC4)cn3)ncc2Cl)c(C)c1 | > 10 µM | > 10 µM | 8.87 µM | 9.47 µM | 21 µM | 20.5 µM | 7.6 µM |
| COC[C@@H](C)N[C@H]1CC[C@H](Nc2cc(-c3cccc(NCC4(C#N)CCOCC4)n3)c(Cl)cn2)CC1 | 0.002 µM | 3.46 µM | > 10 µM | 43.4 µM | < 0.16 µM | 28.3 µM | < 0.16 µM |
| CN1CCN(c2ccc(Nc3ncc(Cl)c(NCc4ccccc4)n3)nc2)CC1 | > 10 µM | > 10 µM | > 10 µM | 17.3 µM | 24.8 µM | 20.3 µM | > 100 µM |
| Cc1ccccc1Nc1nc(NCCc2ccccc2)ncc1Cl | > 10 µM | > 10 µM | > 10 µM | > 100 µM | > 100 µM | > 100 µM | > 100 µM |
| CN1CCN(c2ccc(Nc3ncc(Cl)c(Nc4ccccc4)n3)nc2)CC1 | 9.85 µM | > 10 µM | 0.113 µM | 51.8 µM | 37.4 µM | 7.99 µM | > 100 µM |
| COc1ccc(CCNc2nc(Nc3ccc(N4CCN(C)CC4)cn3)ncc2Cl)cc1 | > 10 µM | > 10 µM | > 10 µM | 38.4 µM | > 100 µM | > 100 µM | > 100 µM |
| Cc1ccccc1Nc1nc(Nc2ccc(N3CCN(C)CC3)cc2)ncc1Cl | 0.434 µM | 1.19 µM | 0.143 µM | 20.6 µM | 7.02 µM | 6.51 µM | 13.7 µM |
| Cc1ccccc1Nc1nc(NCCc2cccnc2)ncc1Cl | > 10 µM | > 10 µM | > 10 µM | > 100 µM | > 100 µM | > 100 µM | > 100 µM |
| Cc1ccc(Nc2ncc(Cl)c(Nc3ccccc3C)n2)cc1 | > 10 µM | > 10 µM | > 10 µM | > 100 µM | > 100 µM | > 100 µM | > 100 µM |
| CN1CCN(c2ccc(Nc3ncc(Cl)c(NCCc4ccc(F)cc4)n3)nc2)CC1 | > 10 µM | > 10 µM | > 10 µM | > 100 µM | 28.5 µM | > 100 µM | > 100 µM |
| CN1CCN(c2ccc(Nc3ncc(Cl)c(NCc4ccco4)n3)nc2)CC1 | > 10 µM | > 10 µM | 0.279 µM | 21.3 µM | 11 µM | 45.7 µM | > 100 µM |
| Cc1ccccc1Nc1nc(Nc2ccc(N3CCCCC3)cc2)ncc1Cl | > 10 µM | 3.69 µM | > 10 µM | > 100 µM | 19.9 µM | 5.69 µM | > 100 µM |
| Cc1ccccc1Nc1nc(Nc2ccc(N3CCCN(C)CC3)cc2)ncc1Cl | 0.88 µM | 1.59 µM | 0.536 µM | 4.29 µM | 6.39 µM | 1.24 µM | 11.3 µM |
